The values below come from patent US10226451B2, “Substituted bicyclic compounds as bromodomain inhibitors” (ZENITH EPIGENETICS LTD, priority 2013, dated 2019).

Each structure is given as a SMILES string. pIC50: −log10 of the molar value.

In one experiment the test system is hIL-6 mRNA in U937 cells. Kind of experiment: Inhibition of hIL-6 mRNA transcription in LPS-stimulated U937 cells. Format: cell-based. The settings on record: Homo sapiens, U-937, PMA-differentiated U937 cells, LPS 1 ug/mL, 3 h, read-out: IL-6 activity. The method, then: In this example, hIL-6 mRNA in tissue culture cells were quantitated to measure the transcriptional inhibition of hIL-6 when treated with a compound of the present disclosure.
Human leukemic monocyte lymphoma U937 cells (CRL-1593.2) were plated at a density of 3.2×10^4 cells per well in a 96-well plate in 100 μL RPMI-1640 containing 10% FBS and penicillin/streptomycin, and differentiated into macrophages for 3 days in 60 ng/mL PMA ([…]) at 37° C. in 5% CO2 prior to the addition of compound. The cells were pretreated for 1 h with increasing concentrations of test compound in 0.1% DMSO prior to stimulation with 1 ug/mL lipopolysaccharide from Escherichia coli. Triplicate wells were used for each concentration. The cells were incubated at 37° C., 5% CO2 for 3 h before the cells were harvested. At time of harvest, media was removed and cells were rinsed in 200 μL PBS. Cells were harvested using the mRNA Catcher PLUS kit according to manufacturer's instructions. The eluted mRNA was then used in a one-step quantitative real-time PCR reaction using components of the RNA UltraSense™ One-Step Kit (Life Technologies) together with Applied Biosystems TaqMan® primer-probes for hIL-6 and Cyclophilin. Real-time PCR plates were run on a ViiA™7 real time PCR machine (Applied Biosystems), data was analyzed, normalizing the Ct values for hIL-6 to an internal control, prior to determining the fold expression of each sample, relative to the control.

In experiment [1] the target is T1, Brd4 bromodomain 1 (BRD4(1)) (Homo sapiens, UniProt O60885).
T1 construct: made in house; host or cells: E. coli BL21(DE3)
Kind of experiment: Inhibition of tetra-acetylated histone H4 binding to Brd4 bromodomain 1 (HTRF/FRET). The note with it: tetra-acetylated histone H4 peptide, His-tagged bromodomain 200 nM, 2 h. The method, then:
Proteins were cloned and overexpressed with a N-terminal 6×His tag, then purified by nickel affinity followed by size exclusion chromatography. Briefly, E. coli BL21(DE3) cells were transformed with a recombinant expression vector encoding N-terminally Nickel affinity tagged bromodomains from Brd2, Brd3, Brd4. Cell cultures were incubated at 37° C. with shaking to the appropriate density and induced overnight with IPTG. The supernatant of lysed cells was loaded onto Ni-IDA column for purification. Eluted protein was pooled, concentrated and further purified by size exclusion chromatography. Fractions representing monomeric protein were pooled, concentrated, aliquoted, and frozen at −80° C. for use in subsequent experiments.
Binding of tetra-acetylated histone H4 and BET bromodomains was confirmed by a Homogenous Time Resolved Fluorescence Resonance Energy Transfer (HTRF®) method. N-terminally His-tagged bromodomains (200 nM) and biotinylated tetra-acetylated histone H4 peptide (25-50 nM, Millipore) were incubated in the presence of Europium Cryptate-labeled streptavidin (Cisbio Cat. #610SAKLB) and XL665-labeled monoclonal anti-His antibody (Cisbio Cat. #61HISXLB) in a white 96 well microtiter plate (Greiner). For inhibition assays, serially diluted test compound was added to these reactions in a 0.2% final concentration of DMSO. Duplicate wells were used for each concentration tested. Final buffer concentrations were 30 mM HEPES pH 7.4, 30 mM NaCl, 0.3 mM CHAPS, 20 mM phosphate pH 7.0, 320 mM KF, 0.08% BSA. After a 2 h incubation at room temperature, fluorescence was measured at 665 and 620 nm with a SynergyH4 plate reader (Biotek). The binding inhibitory activity was shown by a decrease in 665 nm relative to 620 nm fluorescence. IC50 values were determined from a dose response curve.
Background: Time-resolved FRET reads energy transfer from a long-lived donor to a nearby acceptor.

Another experiment concerns Human AML MV-4-11 cells. The experiment can be described thus: Inhibition of cell proliferation in MV4-11 cells (CellTiter Aqueous One). Format: cell-based. The settings on record: 72 h. The method, then: In this example, cell titer in MV4-11 cells were quantitated to measure the inhibition of proliferation when treated with a compound of the present disclosure.
MV4-11 cells (CRL-9591) were plated at a density of 5×10^4 cells per well in 96 well flat bottom plates and treated with increasing concentrations of test compound or DMSO (0.1%) in IMDM media containing 10% FBS and penicillin/streptomycin. Triplicate wells were used for each concentration and a well containing only media was used as a control. Plates were incubated at 37° C., 5% CO2 for 72 h before adding 20 μL of the CellTiter Aqueous One Solution (Promega) to each well and incubated at 37° C., 5% CO2 for an additional 3-4 h. The absorbance was read at 490 nm in a spectrophotometer and the percentage of cell titer relative to DMSO-treated cells was calculated after correcting for background by subtracting the blank well's signal. IC50 values were calculated using the Graph Pad Prism software.

Experiment [2] relates to c-myc in Human AML MV4-11 cells. The experiment can be described thus: Inhibition of c-MYC expression (mRNA, real-time PCR) in MV4-11 cells. Format: cell-based. The note with it: 3 h, mRNA by real-time PCR. The procedure:
MV4-11 cells (CRL-9591) were plated at a density of 2.5×10^4 cells per well in 96 well U-bottom plates and treated with increasing concentrations of test compound or DMSO (0.1%) in IMDM media containing 10% FBS and penicillin/streptomycin, and incubated for 3 h at 37° C. Triplicate wells were used for each concentration. Cells were pelleted by centrifugation and harvested using the mRNA Catcher PLUS kit according to manufacturer's instructions. The eluted mRNA isolated was then used in a one-step quantitative real-time PCR reaction, using components of the RNA UltraSense™ One-Step Kit (Life Technologies) together with Applied Biosystems TaqMan® primer-probes for cMYC and Cyclophilin. Real-time PCR plates were run on a ViiA™7 real time PCR machine (Applied Biosystems), data was analyzed, normalizing the Ct values for hMYC to an internal control, prior to determining the fold expression of each sample, relative to the control.
On the technique in general: Real-time PCR tracks product formation cycle by cycle.

With `Cc1noc(C)c1-c1cc(-c2c(C)noc2C)c2oc(=O)[nH]c2c1` [Example Compound 3, 5,7-bis(3,5-dimethylisoxazol-4-yl)benzo[d]oxazol-2(3H)-one], the pIC50 with hIL-6 mRNA in U937 cells was 5.52 to 6.52; in experiment [1], no less than 6.52; with Human AML MV-4-11 cells it was 4.52 to 5.52; in experiment [2] it was 4.52 to 5.52.

For `Cc1ccncc1-c1cc(-c2c(C)noc2C)cc2[nH]c(=O)n(C)c12` [Example Compound 6, 5-(3,5-dimethylisoxazol-4-yl)-1-methyl-7-(4-methylpyridin-3-yl)-1H-benzo[d]imidazol-2(3H)-one], the pIC50 is no less than 6.52 in the experiment with hIL-6 mRNA in U937 cells, no less than 6.52 in experiment [1], 5.52 to 6.52 with Human AML MV-4-11 cells and no less than 6.52 in experiment [2].

As to `Cc1noc(C)c1-c1cc(-c2cccnc2C(F)(F)F)c2c(c1)[nH]c(=O)n2C` [Example Compound 8, 5-(3,5-dimethylisoxazol-4-yl)-1-methyl-7-(2-(trifluoromethyl)pyridin-3-yl)-1H-benzo[d]imidazol-2(3H)-one], the pIC50 in the experiment on hIL-6 mRNA in U937 cells was 5.52 to 6.52; in experiment [1], no less than 6.52; with Human AML MV-4-11 cells, 5.52 to 6.52; in experiment [2], 5.52 to 6.52.

Consider `COc1ccc(C)cc1-c1cc(-c2c(C)noc2C)cc2[nH]c(=O)n(C)c12` [Example Compound 12, 5-(3,5-dimethylisoxazol-4-yl)-7-(2-methoxy-5-methylphenyl)-1-methyl-1H-benzo[d]imidazol-2(3H)-one], for which the pIC50 was 5.52 to 6.52 in the experiment with hIL-6 mRNA in U937 cells, no less than 6.52 in experiment [1] and 5.52 to 6.52 with Human AML MV-4-11 cells.

For the molecule `Cc1noc(C)c1-c1cc(-c2cccc(C#N)c2C)c2c(c1)[nH]c(=O)n2C` [Example Compound 14, 3-(6-(3,5-dimethylisoxazol-4-yl)-3-methyl-2-oxo-2,3-dihydro-1H-benzo[d]imidazol-4-yl)-2-methylbenzonitrile], the pIC50 in experiment [1] is no less than 6.52; in the experiment on Human AML MV-4-11 cells, 5.52 to 6.52; in experiment [2], no less than 6.52.

For `Cc1noc(C)c1-c1cc(-c2c(C)noc2C)c2c(c1)n(C)c(=O)n2C` [Example Compound 15, 4,6-bis(3,5-dimethylisoxazol-4-yl)-1,3-dimethyl-1H-benzo[d]imidazol-2(3H)-one], the figures for the pIC50 (in experiment [1]; in the experiment with Human AML MV-4-11 cells; in experiment [2]) were no less than 6.52, 5.52 to 6.52 and 5.52 to 6.52, respectively.

With `Cc1ccc(C#N)cc1-c1cc(-c2c(C)noc2C)cc2[nH]c(=O)n(C)c12` [Example Compound 16, 3-(6-(3,5-dimethylisoxazol-4-yl)-3-methyl-2-oxo-2,3-dihydro-1H-benzo[d]imidazol-4-yl)-4-methylbenzonitrile], the pIC50 in the experiment on hIL-6 mRNA in U937 cells was 5.52 to 6.52; in experiment [1] it was no less than 6.52; with Human AML MV-4-11 cells, 5.52 to 6.52; in experiment [2] it was no less than 6.52.

`COc1ccncc1-c1cc(-c2c(C)noc2C)cc2[nH]c(=O)n(C)c12` [Example Compound 17, 5-(3,5-dimethylisoxazol-4-yl)-7-(4-methoxypyridin-3-yl)-1-methyl-1H-benzo[d]imidazol-2(3H)-one]: the pIC50 in experiment [1] is no less than 6.52; with Human AML MV-4-11 cells, 5.52 to 6.52; in experiment [2], no less than 6.52.

With `Cc1ccc(Cl)cc1-c1cc(-c2c(C)noc2C)cc2[nH]c(=O)n(C)c12` [Example Compound 19, 7-(5-chloro-2-methylphenyl)-5-(3,5-dimethylisoxazol-4-yl)-1-methyl-1H-benzo[d]imidazol-2(3H)-one], the pIC50 is 5.52 to 6.52 in the experiment on hIL-6 mRNA in U937 cells, no less than 6.52 in experiment [1], 5.52 to 6.52 with Human AML MV-4-11 cells and no less than 6.52 in experiment [2].

As for `Cc1ccncc1-c1cc(-c2c(C)noc2C)cc2[nH]c(=S)[nH]c12` [Example Compound 24, 6-(3,5-dimethylisoxazol-4-yl)-4-(4-methylpyridin-3-yl)-1H-benzo[d]imidazole-2-thiol], the pIC50 in experiment [1] is no less than 6.52; in the experiment on Human AML MV-4-11 cells, 5.52 to 6.52; in experiment [2], no less than 6.52.

As to `Cc1ccc(C#N)cc1-c1cc(-c2c(C)noc2C)cc2[nH]c(=S)[nH]c12` [Example Compound 25, 3-(6-(3,5-dimethylisoxazol-4-yl)-2-thioxo-2,3-dihydro-1H-benzo[d]imidazol-4-yl)-4-methylbenzonitrile], the values for the pIC50 (in experiment [1]; in the experiment on Human AML MV-4-11 cells; in experiment [2]) were no less than 6.52, 5.52 to 6.52 and no less than 6.52, respectively.

Take `Cc1noc(C)c1-c1cc(-c2c(Cl)cncc2Cl)c2c(c1)[nH]c(=O)n2C` [Example Compound 35, 7-(3,5-dichloropyridin-4-yl)-5-(3,5-dimethylisoxazol-4-yl)-1-methyl-1H-benzo[d]imidazol-2(3H)-one]: the pIC50 in the experiment on hIL-6 mRNA in U937 cells was 5.52 to 6.52; in experiment [1] it was no less than 6.52.

As to `Cc1noc(C)c1-c1cc(-c2cnc3ccccc3c2)c2c(c1)[nH]c(=O)n2C` [Example Compound 36, 5-(3,5-dimethylisoxazol-4-yl)-1-methyl-7-(quinolin-3-yl)-1H-benzo[d]imidazol-2(3H)-one], the pIC50 (in experiment [1]; in the experiment on Human AML MV-4-11 cells; in experiment [2]) was 5.52 to 6.52 in each case.

Turning to `Cc1noc(C)c1-c1cc(-c2ccccc2Cl)c2c(c1)[nH]c(=O)n2C` [Example Compound 37, 7-(2-chlorophenyl)-5-(3,5-dimethylisoxazol-4-yl)-1-methyl-1H-benzo[d]imidazol-2(3H)-one], the pIC50 (in experiment [1]; in the experiment with Human AML MV-4-11 cells; in experiment [2]) was 5.52 to 6.52 in each case.

For `COc1ccc(F)c(-c2cc(-c3c(C)noc3C)cc3[nH]c(=O)n(C)c23)c1` [Example Compound 41, 5-(3,5-dimethylisoxazol-4-yl)-7-(2-fluoro-5-methoxyphenyl)-1-methyl-1H-benzo[d]imidazol-2(3H)-one], the pIC50 in experiment [1] is no less than 6.52.

As to `COc1ccc(Cl)cc1-c1cc(-c2c(C)noc2C)cc2[nH]c(=O)n(C)c12` [Example Compound 42, 7-(5-chloro-2-methoxyphenyl)-5-(3,5-dimethylisoxazol-4-yl)-1-methyl-1H-benzo[d]imidazol-2(3H)-one], in experiment [1], the pIC50 is no less than 6.52.

As for `COc1cccc(-c2cc(-c3c(C)noc3C)cc3[nH]c(=O)n(C)c23)c1F` [Example Compound 43, 5-(3,5-dimethylisoxazol-4-yl)-7-(2-fluoro-3-methoxyphenyl)-1-methyl-1H-benzo[d]imidazol-2(3H)-one], the pIC50 in experiment [1] was 5.52 to 6.52.

For `Cc1noc(C)c1-c1cc(-c2ccc3ocnc3c2)c2c(c1)[nH]c(=O)n2C` [Example Compound 46, 7-(benzo[d]oxazol-5-yl)-5-(3,5-dimethylisoxazol-4-yl)-1-methyl-1H-benzo[d]imidazol-2(3H)-one], in experiment [1], the pIC50 was no less than 6.52.
